The values that follow come from ChEMBL document CHEMBL4680337, “Synthetic 1,4-Naphthoquinones inhibit P2X7 receptors in murine neuroblastoma cells” (Bioorg Med Chem, 2021).

Assay type in all cases: cell-based
Assay [1] addresses T1, P2X purinoceptor 7 (Mus musculus) (UniProt Q9Z1M0).
T1 sequence (whole entry): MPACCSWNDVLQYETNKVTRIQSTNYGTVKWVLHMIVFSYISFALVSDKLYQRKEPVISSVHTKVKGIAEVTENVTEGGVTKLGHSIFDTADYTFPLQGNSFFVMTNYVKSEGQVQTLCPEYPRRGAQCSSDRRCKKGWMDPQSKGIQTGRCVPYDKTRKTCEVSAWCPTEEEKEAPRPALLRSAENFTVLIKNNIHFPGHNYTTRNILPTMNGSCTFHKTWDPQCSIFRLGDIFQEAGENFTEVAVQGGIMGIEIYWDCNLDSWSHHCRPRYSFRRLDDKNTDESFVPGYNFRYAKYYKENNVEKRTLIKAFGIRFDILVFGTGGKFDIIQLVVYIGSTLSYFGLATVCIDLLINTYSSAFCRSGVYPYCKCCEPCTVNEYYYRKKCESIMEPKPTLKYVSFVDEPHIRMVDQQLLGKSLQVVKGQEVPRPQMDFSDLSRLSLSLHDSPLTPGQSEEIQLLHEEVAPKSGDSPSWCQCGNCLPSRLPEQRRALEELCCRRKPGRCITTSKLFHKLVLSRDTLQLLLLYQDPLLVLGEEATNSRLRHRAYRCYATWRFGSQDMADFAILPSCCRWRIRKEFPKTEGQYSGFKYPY
The assay is described as follows: Antagonist activity at P2X7R in mouse N2a cells assessed as reduction in ATP-induced YO-PRO-1 uptake by cells at 10 uM incubated for 1 hr by fluorescence based assay relative to control.

Assay [2] addresses T1, P2X purinoceptor 7 (Mus musculus). The assay is described as follows: Antagonist activity at P2X7R in mouse N2a cells assessed as reduction in ATP-induced EtBr uptake by cells incubated for 1 hr by fluorescence based assay relative to control. As to conditions: concentration not given here.
The target is the same in assay [3]. Briefly: Antagonist activity at P2X7R in mouse N2a cells assessed as reduction in ATP-induced calcium influx at 5 uM incubated for 1 hr by Fura-2AM dye based spectrofluorometry relative to control.
The target is the same in assay [4]. Briefly: Antagonist activity at P2X7R in mouse N2a cells assessed as cytoprotective activity against ATP-induced cell death by measuring increase in cell viability at 1 uM incubated for 1 hr followed by ATP addition and measured after 48 hrs by MTT assay relative to control. As to conditions: time 49.0 hrs. A general note: Formazan colour is commonly taken as a measure of viable cells.

For assay [5] the target is unchanged. The assay is described as follows: Antagonist activity at P2X7R in mouse N2a cells assessed as reduction in ATP-induced YO-PRO-1 uptake by cells at 5 uM incubated for 1 hr by fluorescence imaging based laser scanning microscopic analysis.
The next assay deals with N2a. Briefly: Cytotoxicity against mouse N2a cells assessed as reduction in cell viability incubated for 24 hrs by MTT assay.
Assay [6] has as its target T1, P2X purinoceptor 7 (Mus musculus). Briefly: Antagonist activity at P2X7R in mouse N2a cells assessed as inhibition of ATP-induced ROS production at 0.1 uM incubated for 1 hr by using H2DCF-DA probe based fluorescence assay relative to control.
The target is the same in assay [7]. The assay is described as follows: Antagonist activity at P2X7R in mouse N2a cells assessed as inhibition of ATP-induced NO production by measuring NO level at 10 uM incubated for 1 hr by using DAF-FM probe based fluorescence assay relative to control. More on the design: scale not given: the % may be the effect or the level left.
For assay [8] the target is unchanged. Briefly: Antagonist activity at P2X7R in mouse N2a cells assessed as reduction in ATP-induced EtBr uptake by cells at 0.1 to 10 uM incubated for 1 hr by fluorescence based assay. As to conditions: dose 0.1-10 µM.
The target is the same in assay [9]. The assay is described as follows: Antagonist activity at P2X7R in mouse N2a cells assessed as reduction in ATP-induced YO-PRO-1 uptake by cells incubated for 1 hr by fluorescence based assay. Particulars: dose 0.1-10 µM.
The target is the same in assay [10]. The assay is described as follows: Antagonist activity at P2X7R in mouse N2a cells assessed as reduction in ATP-induced calcium influx at 10 uM incubated for 1 hr by Fura-2AM dye based spectrofluorometry relative to control.
Assay [11] has the same target. Briefly: Antagonist activity at P2X7R in mouse N2a cells assessed as inhibition of ATP-induced ROS production at 10 uM incubated for 1 hr by using H2DCF-DA probe based fluorescence assay.
Assay [12] shares this target. Briefly: Antagonist activity at P2X7R in mouse N2a cells assessed as inhibition of ATP-induced NO production at 10 uM incubated for 1 hr by using DAF-FM probe based fluorescence assay.
Assay [13] shares this target. Briefly: Antagonist activity at P2X7R in mouse N2a cells assessed as cytoprotective activity against ATP-induced cell death by measuring increase in cell viability at 10 uM incubated for 1 hr followed by ATP addition and measured after 48 hrs by MTT assay relative to control. Particulars: time 49.0 hrs.
Assay [14] shares this target. The assay is described as follows: Antagonist activity at P2X7R in mouse N2a cells assessed as inhibition of ATP-induced NO production at 0.1 to 10 uM incubated for 1 hr by using DAF-FM probe based fluorescence assay. As to conditions: dose 0.1-10 µM.
Assay [15] shares this target. The assay is described as follows: Antagonist activity at P2X7R in mouse N2a cells assessed as inhibition of ATP-induced NO production by measuring NO level at 1 uM incubated for 1 hr by using DAF-FM probe based fluorescence assay relative to control. Also noted: scale not given: the % may be the effect or the level left.
For assay [16] the target is unchanged. The assay is described as follows: Antagonist activity at P2X7R in mouse N2a cells assessed as cytoprotective activity against ATP-induced cell death by measuring increase in cell viability at 0.1 to 5 uM incubated for 1 hr followed by ATP addition and measured after 48 hrs by MTT assay. Particulars: dose 0.1-5 µM, time 49.0 hrs.
Assay [17] has the same target. Briefly: Antagonist activity at P2X7R in mouse N2a cells assessed as inhibition of ATP-induced ROS production at 1 uM incubated for 1 hr by using H2DCF-DA probe based fluorescence assay relative to control.
Assay [18] shares this target. Briefly: Antagonist activity at P2X7R in mouse N2a cells assessed as reduction in ATP-induced calcium influx at 5 uM incubated for 1 hr by Fluo-3AM dye based laser scanning microscopy.
Assay [19] shares this target. The assay is described as follows: Antagonist activity at P2X7R in mouse N2a cells assessed as inhibition of ATP-induced NO production at 50 uM incubated for 1 hr by using DAF-FM probe based fluorescence assay.
For assay [20] the target is unchanged. The assay is described as follows: Antagonist activity at P2X7R in mouse N2a cells assessed as inhibition of ATP-induced ROS production at 50 uM incubated for 1 hr by using H2DCF-DA probe based fluorescence assay.
The target is the same in assay [21]. The assay is described as follows: Antagonist activity at P2X7R in mouse N2a cells assessed as reduction in ATP-induced calcium influx at 50 uM incubated for 1 hr by Fura-2AM dye based spectrofluorometry.

SMILES strings stand for the structures. Calls of active or inactive are those of the source. No cut-off for these calls is given here.

On to `O=C1C2=C(S[C@H]3O[C@@H](CO)[C@H](O)[C@@H](O)[C@@H]3O2)C(=O)c2ccccc21`, for which the inhibition (commonly the percentage by which the read-out fell short of the control) in assay [1] was 46.2%; in assay [2], 42.6%; in [3] it was 32.7%; in [6], 66.3%; in [9] it was “Dose-dependent effect”. In addition, the Activity in assay [4] was determined as 19.6%; in assay [7], 44.5%. Besides, the inhibition entry in assay [5] and in [8] was “Active” in each case. For the same compound, the EC50 (in general, the midpoint of the concentration-response curve) in the assay on N2a turned out to be 29.5 µM.
As to `CCOc1ccc(Nc2ccc(/C(=C3C=C/C(=[N+](/CC)Cc4cccc(S(=O)(=O)[O-])c4)C=C/3C)c3ccc(N(CC)Cc4cccc(S(=O)(=O)O)c4)cc3C)cc2)cc1`, the inhibition in assay [10] came to 46%. The inhibition result in [1], in assay [11] and in assay [12] was “Active” in each case. The Activity in assay [13] is 14.6%.
As to `COC1=C(S[C@@H]2O[C@H](CO)[C@@H](O)[C@H](O)[C@H]2O)C(=O)c2ccccc2C1=O`, the inhibition in assay [1] was 60.9%; in assay [2], 34.8%; in assay [3], 15.1%; in assay [6] it was 69.8%; in assay [9] it was “Dose-dependent effect”. Further, the Activity in assay [4] is 22.2%. For the same compound, the inhibition result in assay [14] was “inactive”. Besides, the concentration giving a half-maximal response (EC50) with N2a was 75.2 µM.
Regarding `Clc1cccc(-c2nnnn2Cc2cccnc2)c1Cl`, the inhibition in assay [3] worked out at 90%.
For `COC1=C(S[C@@H]2O[C@H](COC(C)=O)[C@@H](OC(C)=O)[C@H](OC(C)=O)[C@H]2OC(C)=O)C(=O)c2c(O)c(C)c(C)c(O)c2C1=O`, the inhibition in [1] was 54.1%; in [2], 25.2%; in assay [9] it was “Dose-dependent effect”; in [17], 70.9%. Further, the inhibition entry in assay [3] is “inactive”. For the same compound, in assay [15], the Activity came to 56.8%. Besides, the outcome in assay [16] was inactive. Further, the concentration for a half-maximal effect (EC50) in the assay with N2a is 17.8 µM.
`Cc1c(C)c(O)c2c(c1O)C(=O)C1=C(S[C@H]3O[C@@H](CO)[C@H](O)[C@@H](O)[C@@H]3O1)C2=O`: the inhibition in assay [1] stood at 20.7%; in assay [2] it was 18.3%; in assay [3] it was 36%; in [17] it was 58.4%. In [15], the Activity was 48.5%. For the same compound, the result in [16] was inactive. Besides, the inhibition entry in assay [18] is “Active”. Also, the EC50 in the assay with N2a turned out to be 22.6 µM.
For the compound `Cc1cc(/N=N/c2ccc(S(=O)(=O)O)cc2S(=O)(=O)O)c(COP(=O)(O)O)c(C=O)c1O`, the inhibition result in assay [19], in assay [20] and in assay [21] was “Active” throughout.
